Data taken from US20230407373A1 (priority 2020, published 2023).
Like-named read-outs stand apart in the source and are kept apart here.

Key:
[1] = tested on: SARS-CoV-2; format: cell-based; conditions: Calu-3 cells, 50 nM siRNA, RT-qPCR, relative to siNC
[2] = tested on: HCoV-OC43 gRNA and sgRNA; format: binding; conditions: for target (unweighted spectral count, OC43 Probe II capture) / target (unweighted spectral count): tested against no-probe control; for target (unweighted spectral count, OC43 Probe II capture): FDR<10%; for target (unweighted spectral count, OC43 Probe II) / background (unweighted spectral count, no-probe control): type n_48_v, 48 hpi; for target (unweighted spectral count, OC43 Probe II): OC43 Probe II capture on infected cells; for background (unweighted spectral count, no-probe control): no-probe control on infected cells; for target (unweighted spectral count): OC43 Probe II, infected cells
[3] = tested on: gRNA of HCoV-OC43; format: binding; conditions: for target (spectral count) / background (spectral count): type g_36_m, 36 hpi, Probe I; for target (spectral count): HCoV-OC43-infected HCT-8 cells; for background (spectral count): uninfected-probe control; for target (spectral count, OC43 Probe I RNP capture) / background (spectral count, no-probe control): type n_48_v: 48 hours post-infection; for target (spectral count, OC43 Probe I RNP capture): infected cells, unweighted spectral count; for background (spectral count, no-probe control): no-probe control on infected cells
[4] = tested on: SARS-CoV-2 gRNA and sgRNAs; format: binding; conditions: for target (unweighted spectral count in RNP capture): Probe II capture, LC-MS/MS LFQ; for background (unweighted spectral count in control): no-probe control pull-down, used as background for Probe II; for target (unweighted spectral count of the protein in the RNP capture experiment): LC-MS/MS label-free quantification, probe pool not given; for back-ground (unweighted spectral count of the protein in the control experiment): protein background of the control (e.g. no-probe) experiment
[5] = tested on: SARS-CoV-2 gRNA; format: binding; conditions: for target (unweighted spectral count of the protein in the RNP capture): LC-MS/MS, Probe I sample (first 199 lines of Table 2)

Question: What does the source list for TRIM25: host protein, UniProt Q14258?
Answer: change in viral RNA levels (gRNA, N sgRNA) after siRNA depletion [1]: increased viral RNAs; target (unweighted spectral count, OC43 Probe II capture) ([2]; 24 hpi, type n_24_v): 5; target (unweighted spectral count, OC43 Probe II) [2]: 13; background (unweighted spectral count, no-probe control) [2]: 3; target (spectral count) [3]: 14; background (spectral count) [3]: 1; target (unweighted spectral count in RNP capture) [4]: 20; background (unweighted spectral count in control) [4]: 1

Question: How did the “target (unweighted spectral count, OC43 Probe II capture)” value ([2]; 36 hpi, type n_36_v) turn out when TARDBP was run?
Answer: 19

Question: And the “target (unweighted spectral count)” value ([2]; 12 hpi (type n_12_v))?
Answer: 10

Question: And the “target (unweighted spectral count)” value ([2]; 24 hpi (type n_24_v))?
Answer: 20

Question: And the “target (unweighted spectral count, OC43 Probe II)” value [2]?
Answer: 22

Question: And the “background (unweighted spectral count, no-probe control)” value [2]?
Answer: 3

Question: And the “target (unweighted spectral count of the protein in the RNP capture)” value [5]?
Answer: 28

Question: And the “target (spectral count, OC43 Probe I RNP capture)” value [3]?
Answer: 28

Question: And the “background (spectral count, no-probe control)” value [3]?
Answer: 3

Question: And the “target (unweighted spectral count in RNP capture)” value [4]?
Answer: 30

Question: And the “background (unweighted spectral count in control)” value [4]?
Answer: 1

Question: Which results are given for ELAVL1: host protein, UniProt Q15717?
Answer: target (unweighted spectral count, OC43 Probe II capture) ([2]; 36 hpi, type n_36_v): 40; target (unweighted spectral count) ([2]; 12 hpi (type n_12_v)): 9; target (unweighted spectral count) ([2]; 24 hpi (type n_24_v)): 17; target (unweighted spectral count, OC43 Probe II) [2]: 36; background (unweighted spectral count, no-probe control) [2]: 2; target (spectral count) ([2]; type s_36_m, HCoV-OC43-infected HCT-8 cells, 36 hpi, Probe II): 40; background (spectral count) ([2]; type s_36_m, uninfected-probe control, 36 hpi, Probe II): 7; enrichment in SARS-CoV-2 Probe I RNP capture [5]: found in the SARS-CoV-2 experiments; target (unweighted spectral count of the protein in the RNP capture) [5]: 77; target (spectral count) [3]: 38; background (spectral count) [3]: 6; target (spectral count, OC43 Probe I RNP capture) [3]: 50; background (spectral count, no-probe control) [3]: 2; enrichment in SARS-CoV-2 Probe II RNP capture [4]: found in the SARS-CoV-2 experiments; target (unweighted spectral count in RNP capture) [4]: 74; background (unweighted spectral count in control) [4]: 1

Question: With ILF2: host protein, UniProt Q12905 as the substance, how does the “target (unweighted spectral count, OC43 Probe II capture)” value ([2]; 36 hpi, type n_36_v) read?
Answer: 15

Question: And the “target (unweighted spectral count)” value ([2]; 12 hpi (type n_12_v))?
Answer: 4

Question: What about the “target (unweighted spectral count)” value ([2]; 24 hpi (type n_24_v)) of the same substance?
Answer: 7

Question: And the “target (unweighted spectral count, OC43 Probe II)” value [2]?
Answer: 17

Question: What about the “background (unweighted spectral count, no-probe control)” value [2] of the same substance?
Answer: 3

Question: What about the “target (unweighted spectral count of the protein in the RNP capture)” value [5] of the same substance?
Answer: 12

Question: What about the “target (spectral count)” value [3] of the same substance?
Answer: 16

Question: And the “background (spectral count)” value [3]?
Answer: 2

Question: What about the “target (spectral count, OC43 Probe I RNP capture)” value [3] of the same substance?
Answer: 14

Question: And the “background (spectral count, no-probe control)” value [3]?
Answer: 3

Question: And the “target (unweighted spectral count of the protein in the RNP capture experiment)” value [4]?
Answer: 5

Question: What about the “back-ground (unweighted spectral count of the protein in the control experiment)” value [4] of the same substance?
Answer: 1

Question: What does the source list for SAFB2?
Answer: target (unweighted spectral count, OC43 Probe II capture) ([2]; 36 hpi, type n_36_v): 5; target (unweighted spectral count, OC43 Probe II) [2]: 7; background (unweighted spectral count, no-probe control) [2]: 1; target (unweighted spectral count of the protein in the RNP capture) [5]: 8; target (spectral count, OC43 Probe I RNP capture) [3]: 9; background (spectral count, no-probe control) [3]: 1; target (unweighted spectral count of the protein in the RNP capture experiment) [4]: 6; back-ground (unweighted spectral count of the protein in the control experiment) [4]: 1

Question: How did the “target (unweighted spectral count, OC43 Probe II capture)” value ([2]; 36 hpi, type n_36_v) turn out when HNRNPAB was run?
Answer: 21

Question: What about the “target (unweighted spectral count)” value ([2]; 12 hpi (type n_12_v)) of the same substance?
Answer: 10

Question: And the “target (unweighted spectral count, OC43 Probe II)” value [2]?
Answer: 27

Question: And the “background (unweighted spectral count, no-probe control)” value [2]?
Answer: 2

Question: What about the “target (unweighted spectral count of the protein in the RNP capture)” value [5] of the same substance?
Answer: 44

Question: And the “target (spectral count, OC43 Probe I RNP capture)” value [3]?
Answer: 37

Question: What about the “background (spectral count, no-probe control)” value [3] of the same substance?
Answer: 2

Question: And the “target (unweighted spectral count in RNP capture)” value [4]?
Answer: 44

Question: And the “background (unweighted spectral count in control)” value [4]?
Answer: 1
